Data as given in patent US5055484A, “7(1H-pyrrol-3-YL)-substituted 3,5-dihydroxyhept-6-enoic acids, 7-(1H-pyrrol-3-YL)-substituted 3,5-dihyroxyhept-anoic acids, their corresponding delta-lactones and salts, their use as medicaments and pharmaceutical products and intermediates” (Hoechst Aktiengesellschaft, priority 1987, dated 1991).

Key:
HMG--CoA reductase = target: T1, HMG--CoA reductase (Rattus norvegicus, UniProt P51639); assay: inhibition of HMG-CoA reductase activity on solubilized enzyme preparations from rat liver microsomes; assay type: biochemical
T1 sequence (P51639 1-887): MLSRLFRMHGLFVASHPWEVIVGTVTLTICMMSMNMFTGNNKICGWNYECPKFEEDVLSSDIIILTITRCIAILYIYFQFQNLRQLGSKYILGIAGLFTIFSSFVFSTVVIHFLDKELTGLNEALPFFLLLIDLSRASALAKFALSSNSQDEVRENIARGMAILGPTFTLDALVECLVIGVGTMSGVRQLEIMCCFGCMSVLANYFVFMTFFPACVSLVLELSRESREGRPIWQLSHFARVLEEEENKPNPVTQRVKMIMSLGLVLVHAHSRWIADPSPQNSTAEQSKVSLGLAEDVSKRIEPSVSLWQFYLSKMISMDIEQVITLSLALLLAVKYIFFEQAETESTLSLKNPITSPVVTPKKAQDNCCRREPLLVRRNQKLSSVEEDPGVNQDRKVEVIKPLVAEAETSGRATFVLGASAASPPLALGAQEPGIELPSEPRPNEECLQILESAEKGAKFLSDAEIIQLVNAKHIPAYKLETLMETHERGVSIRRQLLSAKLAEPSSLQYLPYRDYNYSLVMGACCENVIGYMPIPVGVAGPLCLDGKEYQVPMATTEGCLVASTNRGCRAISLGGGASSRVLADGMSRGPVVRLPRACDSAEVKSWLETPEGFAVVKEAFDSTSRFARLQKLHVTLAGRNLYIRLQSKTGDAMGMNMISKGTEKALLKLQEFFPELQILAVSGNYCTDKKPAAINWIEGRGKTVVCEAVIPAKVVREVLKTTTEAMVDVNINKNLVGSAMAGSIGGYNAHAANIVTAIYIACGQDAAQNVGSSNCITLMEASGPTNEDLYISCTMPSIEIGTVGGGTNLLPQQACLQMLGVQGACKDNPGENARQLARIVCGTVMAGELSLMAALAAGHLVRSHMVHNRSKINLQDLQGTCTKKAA
Procedure: The inhibition of HMG--CoA reductase activity by the compounds of the general formulae I and II was determined on solubilized enzyme preparations from rat liver microsomes.
After a changeover in the day/night rhythm of the rats, enzyme production was induced with cholestyramine (®Cuemid) The substrate used was (S,R) ^14 C--HMG--CoA, and the concentration of NADPH was maintained by a regenerating system during the incubation. ^14 C-mevalonate was removed from substrate and other products (for example ^14 C--HMG) by column elution, with the elution profile of each individual sample being determined. Inclusion of ^3 H-mevalonate throughout was dispensed with because the data to be determined were of the relative inhibitory effect. In each test series the enzyme-free control, the enzyme-containing normal mixture (=100%) and those with added products were treated together. Each individual value was formed as the mean of 3 parallel samples. The t test was used to assess the significance of the differences between the means for product-free and productcontaining samples.

cholesterol biosynthesis = assay: inhibition of cholesterol biosynthesis by incorporation of 14C-acetate into cholesterol in HEP G2 cell cultures; assay type: cell-based; conditions: for % potency relative to mevinolin sodium at IC70: comparison of IC70 with mevinolin sodium salt (internal standard)
Procedure: In addition, the inhibition of cholesterol biosynthesis by selected compounds was tested by the incorporation of ^14 C-precursor in cholesterol in cell cultures.
Monolayers of HEP G2 cells in lipoprotein-free nutrient medium were preincubated with various concentrations of the test substances for 1 hour. The ^14 C-labeled precursor sodium ^14 C-acetate was added, and the incubation was then continued for 3 hours. Subsequently 3H-cholesterol was added as internal standard, and a portion of these cells underwent alkaline hydrolysis. The lipids from the hydrolyzed cells were extracted with chloroform/methanol. Carrier cholesterol was added to this lipid mixture which was then subjected to preparative thin-layer chromatography, the cholesterol band was visualized with iodine vapor and then isolated, and the amount of ^14 C-cholesterol formed from the ^14 C-precursor was determined by scintigraphy. Cellular protein was determined in an aliquot of the cells, so that the amount of ^14 C-cholesterol formed from ^14 C-precursor in unit time per mg of cellular protein can be calculated. The solvent control is used for comparison of the inhibitory effect of an added test product, so that it is possible to state directly the inhibition of cholesterol biosynthesis at a particular molar concentration of the test product in the medium. The integrity of the cell culture and the absence of cell damage due to exposure to the products was checked morphologically (light microscope) in an aliquot of the cell cultures. […] The relative potency was determined by comparing the IC70 values and IC50 values for the test compound and for mevinolin sodium salt (internal standard).

[1] = HEP G2 cells, 1 h preincubation, 3 h with 14C-acetate

`COC(=O)C[C@H](O)C[C@H](O)CCc1c(-c2ccc(F)cc2)c(C)n(-c2ccccc2)c1C(C)C` (racemic) [Example 7, Methyl 3(RS),5(RS)-dihydroxy-7-[1-phenyl-2-isopropyl-4-(4-fluorophenyl)-5-methyl-1H-pyrrol-3-yl]heptanoate] was tested. Which IC50 (HMG--CoA reductase) did it give?
The IC50 was 8 nM.

`COC(=O)C[C@H](O)C[C@H](O)/C=C/c1c(-c2ccc(F)cc2)cn(-c2ccccc2)c1C(C)C` (relative stereo) [Example 11, methyl 3(RS),5(SR)-dihydroxy-7-[1-phenyl-2-isopropyl-4-(4-fluorophenyl)-1H-pyrrol-3-yl]hept-6(E)-enoate] was tested. Which IC50 (HMG--CoA reductase) did it give?
Its IC50 is 8 nM.

`COC(=O)C[C@H](O)C[C@H](O)/C=C/c1c(-c2ccc(F)cc2)c(C)n(-c2ccccc2)c1C(C)C` (relative stereo) [Example 5, Methyl 3(RS),5(SR)-dihydroxy-7-[1-phenyl-2-isopropyl-4-(4-fluorophenyl)-5-methyl-1H-pyrrol-3-yl]hept-6(E)-enoate] was tested. Which IC50 (HMG--CoA reductase) did it give?
The IC50 was 7 nM.

`Cc1c(CC[C@@H](O)C[C@@H](O)CC(=O)[O-])c(-c2ccc(F)cc2)c(C)n1-c1ccccc1.[Na+]` (racemic) [Example 4, Sodium 3(RS),5(RS)-dihydroxy-7-[1-phenyl-2,5-dimethyl-4-(4-fluorophenyl)-1H-pyrrol-3-yl]heptanoate] was tested. Which IC50 (HMG--CoA reductase) did it give?
The IC50 was 8.7 nM.

And the “% potency relative to mevinolin sodium at IC50” value (cholesterol biosynthesis; HEP G2 cells, 1 h preincubation, 3 h with 14C-acetate, comparison of IC50 with mevinolin sodium salt (internal standard))?
The value was 450%.

And the “% potency relative to mevinolin sodium at IC70” value (cholesterol biosynthesis; [1])?
Its value is 51%.

With `COC(=O)C[C@H](O)C[C@H](O)CCc1c(-c2ccc(F)cc2)cn(C(C)C)c1C` (racemic) [Example 17, Methyl 3(RS),5(RS)-dihydroxy-7-[1-isopropyl-2-methyl-4-(4-fluorophenyl)-1H-pyrrol-3-yl]heptanoate] as the molecule, how does the IC50 (HMG--CoA reductase) read?
Its IC50 is 100 nM.

With `COC(=O)C[C@H](O)C[C@H](O)/C=C/c1c(-c2ccc(F)cc2)cn(C(C)C)c1C` (relative stereo) [Example 15, methyl 3(RS),5(SR)-dihydroxy-7-[1-isopropyl-2-methyl-4-(4-fluorophenyl)-1H-pyrrol-3-yl]hept-6(E)-enoate] as the molecule, how does the IC50 (HMG--CoA reductase) read?
Its IC50 is 70 nM.

Which IC50 (HMG--CoA reductase) does the source give for `Cc1c(/C=C/[C@@H](O)C[C@@H](O)CC(=O)O)c(-c2ccc(F)cc2)cn1C(C)C` (relative stereo) [Example 16, Sodium 3(RS),5(SR)-dihydroxy-7-[1-isopropyl-2-methyl-4-(4-fluorophenyl)-1H-pyrrol-3-yl]hept-6(E)-enoate] here?
The IC50 was 160 nM.

With `COC(=O)C[C@H](O)C[C@H](O)CCc1c(-c2ccc(F)cc2)cn(-c2ccccc2)c1C(C)C` (racemic) [Example 13, Methyl 3(RS),5(RS)-dihydroxy-7-[1-phenyl-2-isopropyl-4(4-fluorophenyl)-1H-pyrrol-3-yl]heptanoate] as the molecule, how does the IC50 (HMG--CoA reductase) read?
Its IC50 is 15 nM.

How did the IC50 (HMG--CoA reductase) turn out when `Cc1c(CC[C@@H](O)C[C@@H](O)CC(=O)O)c(-c2ccc(F)cc2)cn1C(C)C` (racemic) [Example 18, Sodium 3(RS),5(RS)-dihydroxy-7-[1-isopropyl-2-methyl-4-(4-fluorophenyl)-1H-pyrrol-3-yl]heptanoate] was run?
Its IC50 is 50 nM.

`Cc1c(-c2ccc(F)cc2)c(CC[C@@H](O)C[C@@H](O)CC(=O)O)c(C(C)C)n1-c1ccccc1` (racemic) [Example 8, Sodium 3(RS),5(RS)-dihydroxy-7-[1-phenyl-2-isopropyl-4-(4-fluorophenyl)-5-methyl-1H-pyrrol-3-yl]heptanoate] was tested. Which IC50 (HMG--CoA reductase) did it give?
Its IC50 is 2.5 nM.

Which results are given for `COC(=O)C[C@H](O)C[C@H](O)/C=C/c1c(-c2ccc(F)cc2)c(C)n(-c2ccccc2)c1C` (relative stereo) [Example 1, methyl 3(RS),5(SR)-dihydroxy-7-[1-phenyl-2,5-dimethyl-4-(4-fluorophenyl)-1H-pyrrol-3-yl]hept-6(E)-enoate]?
IC50 (HMG--CoA reductase): 320 nM; % potency relative to mevinolin sodium at IC70 (cholesterol biosynthesis; [1]): 180%

With `CC[C@H](C)C(=O)O[C@H]1C[C@@H](C)C=C2C=C[C@H](C)[C@H](CC[C@@H](O)C[C@@H](O)CC(=O)O)[C@H]21` [mevinolin sodium, reference compound] as the molecule, how does the IC70 (cholesterol biosynthesis; Homo sapiens, HepG2) read?
The IC70 was 150 nM.

And the IC50 (cholesterol biosynthesis; Homo sapiens, HepG2, HEP G2 cells, mean figure, varies somewhat from cell culture to cell culture)?
Its IC50 is 50 nM.

With `Cc1c(/C=C/[C@@H](O)C[C@@H](O)CC(=O)O)c(-c2ccc(F)cc2)c(C)n1-c1ccccc1` (relative stereo) [Example 2, Sodium 3(RS),5(SR)-dihydroxy-7-[1-phenyl-2,5-dimethyl-4-(4-fluorophenyl)-1H-pyrrol-3-yl]hept-6(E)-enoate] as the molecule, how does the IC50 (HMG--CoA reductase) read?
The IC50 was 120 nM.

With `CC(C)c1c(/C=C/[C@@H](O)C[C@@H](O)CC(=O)O)c(-c2ccc(F)cc2)cn1C1CCCCC1` (relative stereo) [Example 20, Sodium 3(RS),5(SR)-dihydroxy-7-[1-cyclohexyl-2-isopropyl-4(4-fluorophenyl)-1H-pyrrol-3-yl]hept-6(E)-enoate] as the molecule, how does the IC50 (HMG--CoA reductase) read?
Its IC50 is 12 nM.

With `COC(=O)C[C@H](O)C[C@H](O)/C=C/c1c(-c2ccc(F)cc2)cn(-c2ccccc2)c1C` (relative stereo) [Example 9, methyl 3(RS),5(SR)-dihydroxy-7-[1-phenyl-2-methyl-4-(4-fluorophenyl)-1H-pyrrol-3-yl]hept-6(E)-enoate] as the molecule, how does the IC50 (HMG--CoA reductase) read?
The IC50 was 120 nM.

With `COC(=O)C[C@H](O)C[C@H](O)CCc1c(-c2ccc(F)cc2)c(C)n(-c2ccccc2)c1C` (racemic) [Example 3, Methyl 3(RS),5(RS)-dihydroxy-7-[1-phenyl-2,5-dimethyl-4-(4-fluorophenyl)-1H-pyrrol-3-yl]heptanoate] as the molecule, how does the IC50 (HMG--CoA reductase) read?
The IC50 was 80 nM.

How did the IC50 (HMG--CoA reductase) turn out when `CC(C)c1c(CC[C@@H](O)C[C@@H](O)CC(=O)O)c(-c2ccc(F)cc2)cn1C(C)C` (racemic) [Example 26, Sodium 3(RS),5(RS)-dihydroxy-7-[1,2-diisopropyl-4-(4-fluorophenyl)-1H-pyrrol-3-yl]heptanoate] was run?
Its IC50 is 3 nM.

What does the source list for `CC(C)c1c(CC[C@@H](O)C[C@@H](O)CC(=O)[O-])c(-c2ccc(F)cc2)cn1-c1ccccc1.[Na+]` (racemic) [Example 14, Sodium 3(RS),5(RS)-dihydroxy-7-[1-phenyl-2-isopropyl-4-(4-fluorophenyl)-1H-pyrrol-3-yl]heptanoate]?
IC50 (HMG--CoA reductase): 3 nM; % potency relative to mevinolin sodium at IC70 (cholesterol biosynthesis; [1]): 150%
